Results: patent US20250034135A1, “ANTI-APOPTOTIC PROTEIN BCL-2 INHIBITOR, PHARMACEUTICAL COMPOSITION AND USES THEREOF” (HANGZHOU HEALZEN THERAPEUTICS CO., LTD., priority 2021, published 2025)

Tests used:
[1] = target: BCL2 (Homo sapiens (Human), UniProt P10415); assay: Molecular level activity test of anti-apoptotic protein BCL2 (HTRF, binding to Bim peptide); conditions: HTRF, binding of BCL2 to Bim peptide; read-out: BCL2 nM (inhibitory activity, IC50)
Summary of the method: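 Disruption of the BCL2/Bim peptide interaction is detected by homogeneous time-resolved fluorescence, using anti-His and streptavidin-XL665 reagents against His-tagged protein and biotin-tagged peptide. Compound exposure lasts 1 h before reagent addition; plates then sit 4 h at room temperature.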

[2] = target: BCL2 (G101V) (Homo sapiens (Human), UniProt P10415, G101V); assay: Molecular level activity test of anti-apoptotic protein BCL2 (G101V) (HTRF, binding to Bim peptide); conditions: inhibition of BCL2 (G101V) binding to Bim peptide, read-out: BCL-2 (G101V)
Procedure: (§1) The detection of the binding ability between anti-apoptotic protein BCL2 (G101V) and pro-apoptotic protein Bim was performed using Homogeneous Time-Resolved Fluorescence technology. The reaction of this method occurred in a white shallow 384-well plate, with a total reaction volume of 10 μL. Specifically, it included 2 μL of the compound to be tested (2% DMSO), 4 μL His-tagged recombinant protein, and 4 μL Biotin-tagged BIM protein peptide. After 1 hour of reaction, 5 L of each Anti-His and streptavidin-tagged XL665 antibody diluents diluted with a detection buffer were added. After incubating at room temperature for 4 hours, the values were read using the Envision multifunctional microplate reader to detect the effect of the compound to be tested on the binding ability of BCL2 (G101V) to BIM protein peptides.

[3] = target: BCL-XL (Homo sapiens (Human), UniProt Q07817); assay: BCL-XL enzyme molecular level activity test (HTRF, binding to BIM peptide); conditions: binding of BCL-XL to BIM peptide, values in nM, read-out: BCL-XL inhibitory activity (IC50)
BCL-XL, sequence (Q07817 whole entry): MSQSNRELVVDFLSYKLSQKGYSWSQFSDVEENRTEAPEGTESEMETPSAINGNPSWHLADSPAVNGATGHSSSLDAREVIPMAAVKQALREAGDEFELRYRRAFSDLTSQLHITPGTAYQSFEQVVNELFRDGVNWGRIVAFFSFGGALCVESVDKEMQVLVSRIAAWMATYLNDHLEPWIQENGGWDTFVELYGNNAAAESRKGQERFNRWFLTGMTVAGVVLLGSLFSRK
Procedure: In a white shallow 384-well plate, a total reaction volume was 10 μL. Specifically, it included 2 μL of the compound to be tested (2% DMSO), […] His-tagged recombinant protein, and 4 μL Biotin-tagged BIM protein peptide. After 1 hour of reaction, 5 μL of each Anti-His and streptavidin-tagged XL665 antibody diluents diluted with a detection buffer were added. After incubating at room temperature for 4 hours, the values were read using the Envision multifunctional microplate reader to detect the effect of the compound to be tested on the binding ability of BCL-XL to BIM protein peptides. The Envision parameter settings were exciting light at 320 nm, and emitting light at 615 nm and 665 nm. The binding ability of anti-apoptotic proteins to Bim protein peptides was indirectly reflected by the signal ratio of 665 nm and 615 nm. In the reaction, background wells without BCL2 and active wells for full binding of recombinant proteins without compounds and Bim protein peptides were set up.

[4] = target: BCL2 (D103Y) (Homo sapiens (Human), UniProt P10415, D103Y); assay: Molecular level activity test of BCL2 (D103Y) (HTRF, binding to Bim peptide); conditions: read-out: BCL-2 (D103Y) (nM) (inhibitory activity, IC50)
Procedure: as §1, with “BCL2 (D103Y)” for “BCL2 (G101V)”, “5 μL” for “5 L”

[5] = system: RS4; 11 cells; assay: Tumor proliferation inhibitory activity test (MTS) on RS4; 11; type: cell-based; conditions: Homo sapiens, RS4-11, 72 h, 3 days incubation
Procedure: The cell proliferation inhibitory ability of the compounds on RS4; 11 was tested using the MTS method. MTS is a tetrazolium blue salt compound that can be reduced by various dehydrogenases in live cell mitochondria to their respective colored methylzan products. Its color depth is highly correlated with the number of live cells in certain sensitive cell lines within a certain range. RS4; 11, RS4; 11 (BCL-2-G101V) and MOLT-4 tumor cells were cultivated separately and collected, 180 μL of cell suspension was added to each well in a 96-well cell plate, 20 μL of DMSO with a final concentration of 0.2% was added to the control cell wells, 20 μL of gradient diluted compounds were added to cell wells, and the treated cells were incubated in a 5% CO2 incubator at 37° C. for 3 days. After the incubation was completed, the reaction solution was prepared according to the MTS reagent kit, 20 μL was added per well and incubated in a 5% CO2 incubator at 37° C. for 3-4 hours. The absorbance value at 490 nm was read using an enzyme-linked immunosorbent assay (ELISA) plate, and the absorbance value at 690 nm was used as the background value, with OD490 nm-OD690 nm as the final raw data. The formula for calculating the inhibition ratio of compounds was as follows: inhibition ratio=(ODDMSO−ODCompound)/(ODDMSO−ODblank)×100%.

| Structure (SMILES) | IC50 [1] [nM] | IC50 [2] [nM] | IC50 [3] [nM] | IC50 [4] [nM] | IC50 [5] [nM] |
| --- | --- | --- | --- | --- | --- |
| CC(C)c1ccccc1[C@@H]1CN(Cc2ccc(F)cc2)CCN1C1CC2(CCN(c3cc(Oc4cnc5[nH]ccc5c4)c(C(=O)NS(=O)(=O)c4ccc(NCC5(F)CCOCC5)c([N+](=O)[O-])c4)cc3F)CC2)C1 [compound 186, (R)-2-((1H-pyrrolo[2,3-b]pyrid-5-yl)oxy)-5-fluoro-4-(2-(4-(4-fluorobenzyl)-2-(2-isopropylphenyl)piperazin-1-yl)-7-azaspiro[3.5]non-7-yl)-N-((4-(((4-fluorotetrahydro-2H-pyran-4-yl)methyl)amino)-3-nitrophenyl)sulfonyl)benzamide] | < 10 | < 10 | > 500 |  |  |
| COc1cc(CN2CCN(C3CC4(CCN(c5cc(Oc6cnc7[nH]ccc7c6)c(C(=O)NS(=O)(=O)c6ccc(NCC7(F)CCOCC7)c([N+](=O)[O-])c6)cc5F)CC4)C3)[C@H](c3ccccc3C(C)C)C2)ccc1C1CC1 [compound 196, (R)-2-((1H-pyrrolo[2,3-b]pyrid-5-yl)oxy)-4-(2-(4-(4-cyclopropyl-3-methoxybenzyl)-2-(2-isopropylphenyl)piperazin-1-yl)-7-azaspiro[3.5]non-7-yl)-5-fluoro-N-((4-(((4-fluorotetrahydro-2H-pyran-4-yl)methyl)amino)-3-nitrophenyl)sulfonyl)benzamide] | < 10 | < 10 | > 500 |  |  |
| CC(C)c1ccccc1[C@@H]1CN(Cc2ccc3c(c2)OCO3)CCN1C1CC2(CCN(c3cc(Oc4cnc5[nH]ccc5c4)c(C(=O)NS(=O)(=O)c4ccc(NCC5(F)CCOCC5)c([N+](=O)[O-])c4)cc3F)CC2)C1 [compound 203, (R)-2-((1H-pyrrolo[2,3-b]pyrid-5-yl)oxy)-4-(2-(4-(benzo[d][1,3]dioxocyclopent-5-ylmethyl)-2-(2-isopropylphenyl)piperazin-1-yl)-7-azaspiro[3.5]non-7-yl)-5-fluoro-N-((4-(((4-fluorotetrahydro-2H-pyran-4-yl)methyl)amino)-3-nitrophenyl)sulfonyl)benzamide] | < 10 | < 10 | > 500 |  |  |
| COc1ccc(CN2CCN(C3CC4(CCN(c5cc(Oc6cnc7[nH]cc(F)c7c6)c(C(=O)NS(=O)(=O)c6ccc(NC[C@H]7CC[C@](C)(O)CC7)c([N+](=O)[O-])c6)cc5F)CC4)C3)[C@H](c3ccccc3C(C)C)C2)cc1 [compound 235, 5-fluoro-2-((3-fluoro-1H-pyrrolo[2,3-b]pyrid-5-yl)oxy)-N-((4-((((1r, 4r)-4-hydroxy-4-methylcyclohexyl)methyl)amino)-3-nitrophenyl)sulfonyl)-4-(2-((R)-2-(2-isopropylphenyl)-4-(4-methoxybenzyl)piperazin-1-yl)-7-azaspiro[3.5]non-7-yl)benzamide] | < 10 | < 10 |  | < 10 | 0.5 to 1 |
| CC(C)c1ccccc1[C@@H]1CN(Cc2cnn(C)c2)CCN1C1CC2(CCN(c3cc(Oc4cnc5[nH]ccc5c4)c(C(=O)NS(=O)(=O)c4ccc(NC[C@H]5CC[C@](C)(O)CC5)c([N+](=O)[O-])c4)cc3F)CC2)C1 [compound 238, 2-((1H-pyrrolo[2,3-b]pyrid-5-yl)oxy)-5-fluoro-N-((4-((((1r, 4r)-4-hydroxy-4-methylcyclohexyl)methyl)amino)-3-nitrophenyl)sulfonyl)-4-(2-((R)-2-(2-isopropylphenyl)-4-((1-methyl-1H-pyrazole-4-yl)methyl)piperazin-1-yl)-7-azaspiro[3.5]non-7-yl)benzamide] |  |  |  |  | 0.5 to 1 |
